# Reference: patent US7329685B2, “1-Phenyl-2-oxo-3-sulfonylamino-pyrrolidine derivatives and related compounds as factor Xa inhibitors for the treatment of acute vascular diseases” (Glaxo Group Limited, priority 2003, dated 2008)
# Where a name gives a salt, the structure may show the parent alone.
# Molecular target: human Factor Xa (Homo sapiens, UniProt P00742)
# Test: In vitro assay for inhibition of Factor Xa (fluorogenic assay, Rhodamine 110 bis-CBZ-glycylglycyl-L-arginine amide substrate)
# Type: biochemical
# Conditions: Ki = IC50/1.6, tiers 'more preferably' and 'most preferably'
# Method: In Vitro Assay for Inhibition of Factor Xa
# Compounds of the present invention were tested for their Factor Xa inhibitory activity as determined in vitro by their ability to Inhibit human Factor Xa in a fluorogenic assay, using Rhodamine 110, bis-CBZ-glycylglycyl-L-arginine amide as the fluorogenic substrate. Compounds were diluted from a 10 mM stock solution in dimethylsulfoxide at appropriate concentrations. Assay was performed at room temperature using buffer consisting of: 50 mM Tris-HCl, 150 mM NaCl, 5 mM CaCl2, pH 7.4. containing human Factor Xa (final conc. Of 0.0003U.ml-1). Compound and enzyme were preincubated for 15 min prior to addition of the substrate (final conc. of 10 μM). The reaction was stopped after 3 hrs with the addition of H-D-Phe-Pro-Arg-Chloromethylketone. An LJL-Analyst fluorimeter was used to monitor fluorescence with 485 nm excitation/535 nm emission. To obtain IC50 values the data were analysed using ActivityBase® and XLfit®.
# Calculation of Ki values: Ki=IC50/(1+[Substrate]/Km)
# The Ki value for the above assay can be obtained by dividing the IC50 value by 1.6.
# Chain of human Factor Xa (P00742 235-488 limits assumed): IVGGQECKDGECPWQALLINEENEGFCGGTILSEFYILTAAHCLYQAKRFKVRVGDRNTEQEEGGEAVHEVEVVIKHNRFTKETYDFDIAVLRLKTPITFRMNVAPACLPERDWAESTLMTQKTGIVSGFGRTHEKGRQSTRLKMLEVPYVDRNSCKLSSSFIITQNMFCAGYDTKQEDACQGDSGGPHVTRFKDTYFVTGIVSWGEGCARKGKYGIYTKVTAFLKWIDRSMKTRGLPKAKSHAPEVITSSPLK
# Chain of human Factor Xa (P00742 41-179 partner limits assumed): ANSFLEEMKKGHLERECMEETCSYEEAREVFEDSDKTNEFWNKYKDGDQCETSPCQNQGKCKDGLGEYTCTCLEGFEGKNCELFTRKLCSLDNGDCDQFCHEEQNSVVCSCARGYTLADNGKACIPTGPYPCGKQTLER
row,Structure (SMILES),Ki [µM]
1,"C/C(=C\S(=O)(=O)N(CC1CC1)[C@H]1CCN(c2ccc(C(=O)N(C)C)cc2F)C1=O)c1ccc(Cl)s1 [Example 1, 4-{(3S)-3-[{[(1E)-2-(5-Chloro-2-thienyl)-1-propen-1-yl]sulfonyl}(cycloprotylmethyl)amino]-2-oxo-1-pyrrolidinyl}-3-fluoro-N,N-dimethylbenzamide]",< 0.01
2,"C/C(=C\S(=O)(=O)N(CCCN(C)C)[C@H]1CCN(c2ccc(C(=O)N(C)C)cc2F)C1=O)c1ccc(Cl)s1 [Example 2, 4-((3S)-3-{{[(1E)-2-(5-Chloro-2-thienyl)-1-propen-1-yl]sulfonyl}[3-(dimethylamino)propyl]amino}-2-oxo-1-Pyrrolidinyl)-3-fluoro-N,N-dimethylbenzamide formate]",< 0.01
3,"C/C(=C\S(=O)(=O)N(CCOCC(N)=O)[C@H]1CCN(c2ccc(C(=O)N(C)C)cc2F)C1=O)c1ccc(Cl)s1 [Example 4, 4-[(3S)-3-({2-[(2-Amino-2-oxoethyl)oxy]ethyl}{[(1E)-2-(5-chloro-2-thienyl)-1-propen-1-yl]sulfonyl}amino)-2-oxo-1-pyrrolidinyl]-3-fluoro-N,N-dimethylbenzamide]",< 0.01
4,"C/C(=C\S(=O)(=O)N(C1CCCC1)[C@H]1CCN(c2ccc(C(=O)N(C)C)cc2F)C1=O)c1ccc(Cl)s1 [Example 5, 4-{(3S)-3-[{[(1E)-2-(5-Chloro-2-thienyl)-1-propen-1-yl]sulfonyl}(cyclopentyl)amino]-2-oxo-1-pyrrolidinyl}-3-fluoro-N,N-dimethylbenzamide]",< 0.01
5,"C/C(=C\S(=O)(=O)N(Cc1nccn1C)[C@H]1CCN(c2ccc(C(=O)N(C)C)cc2F)C1=O)c1ccc(Cl)s1 [Example 6, 4-((3S)-3{{[(1E)-2-(5-Chloro-2-thienyl)-1-propen-1-yl]sulfonyl}[(1-methyl-1H-imidazol-2-yl)methyl]amino}-2-oxo-1-pyrrolidinyl)-3-fluoro-N,N-dimethylbenzamide]",< 0.01
6,"C/C(=C\S(=O)(=O)N(C(C)C)[C@H]1CCN(c2ccc(C(=O)N(C)C)cc2F)C1=O)c1ccc(Cl)s1 [Example 7, 4-{(3S)-3-[{[(1E)-2-(5-Chloro-2-thienyl)-1-propen-1-yl]sulfonyl}(1-methylethyl)amino]-2-oxo-1-pyrrolidinyl}-3-fluoro-N,N-dimethylbenzamide]",< 0.01
7,"C/C(=C\S(=O)(=O)N(Cc1ccccn1)[C@H]1CCN(c2ccc(C(=O)N(C)C)cc2F)C1=O)c1ccc(Cl)s1 [Example 8, 4-{(3S)-3-[{[(1E)-2-(5-Chloro-2-thienyl)-1-propen-1-yl]sulfonyl}(2-pyridinylmethyl)amino]-2-oxo-1-pyrrolidinyl}-3-fluoro-N,N-dimethylbenzamide]",< 0.01
8,"C/C(=C\S(=O)(=O)N(Cc1c(C)noc1C)[C@H]1CCN(c2ccc(C(=O)N(C)C)cc2F)C1=O)c1ccc(Cl)s1 [Example 9, 4-((3S)-3-{{[(1E)-2-(5-Chloro-2-thienyl)-1-propen-1-yl]sulfonyl}[(3,5-dimethyl-4-isoxazolyl)methyl]amino}-2-oxo-1-pyrrolidinyl)-3-fluoro-N,N-dimethylbenzamide]",< 0.01
9,"COCCN([C@H]1CCN(c2ccc(C(=O)N(C)C)cc2F)C1=O)S(=O)(=O)/C=C(\C)c1ccc(Cl)s1 [Example 10, 4-((3S)-3-{{[(1E)-2-(5-Chloro-2-thienyl)-1-propen-1-yl]sulfonyl}[2-(methyloxy)ethyl]amino}-2-oxo-1-pyrrolidinyl)-3-fluoro-N,N-dimethylbenzamide]",< 0.01
10,"C/C(=C\S(=O)(=O)N(CCOC(C)(C)C)[C@H]1CCN(c2ccc(C(=O)N(C)C)cc2F)C1=O)c1ccc(Cl)s1 [Example 11, 4-[(3S)-3-({[(1E)-2-(5-Chloro-2-thienyl)-1-propen-1-yl]sulfonyl}{2-[(1,1-dimethylethyl)oxy]ethyl}amino)-2-oxo-1-pyrrolidinyl]-3-fluoro-N,N-dimethylbenzamide]",< 0.01
11,"C/C(=C\S(=O)(=O)N(Cc1nccnc1N)[C@H]1CCN(c2ccc(C(=O)N(C)C)cc2F)C1=O)c1ccc(Cl)s1 [Example 12, 4-[(3S)-3-([(3-Amino-2-pyrazinyl)methyl]{[(1E)-2-(5-chloro-2-thienyl)-1-propen-1-yl]sulfonyl}amino)-2-oxo-1-pyrrolidinyl]-3-fluoro-N,N-dimethylbenzamide]",< 0.01
12,"C/C(=C\S(=O)(=O)N(C)[C@H]1CCN(c2ccc(C(=O)N(C)C)cc2F)C1=O)c1ccc(Cl)s1 [Example 13, 4-{(3S)-3-[{[(1E)-2-(5-Chloro-2-thienyl)-1-propen-1-yl]sulfonyl}(methyl)amino]-2-oxo-1-pyrrolidinyl}-3-fluoro-N,N-dimethylbenzamide]",< 0.01
13,"CN(C)C(=O)c1ccc(N2CC[C@H](N(C)S(=O)(=O)/C=C/c3ccc(Cl)s3)C2=O)c(F)c1 [Example 14, 4-{(3S)-3-[{[(E)-2-(5-chloro-2-thienyl)ethenyl]sulfonyl}(methyl)amino]-2-oxo-1-pyrrolidinyl}-3-fluoro-N,N-dimethylbenzamide]",< 0.01
